Article PMC6332040, “Synthesis, Density Functional Theory (DFT), Urease Inhibition and Antimicrobial Activities of 5-Aryl Thiophenes Bearing Sulphonylacetamide Moieties” (Molecules, 2015)
Where “and” joins values, the source holds several entries; their conditions need not be identical. Identical values can stand only once.

Experiments:
[1] = target: Jack bean urease enzyme (Canavalia ensiformis, UniProt P07374); experiment: biochemical; type: biochemical; settings: pH 6.8
Experimental: Urease is an enzyme which converts urea to ammonium carbonate and is used as a diagnostic tool to establish the presence of different pathogens in the urinary and gastrointestinal tract. The percentage activity values of urease enzyme of compounds 4a–d were measured at 50 µg/mL and 250 µg/mL (Table 5), whereas, for compounds 4e–g, the percentage activity values of urease enzyme were measured at 15, 40 and 80 µg/mL, respectively (Table 6).
Jack bean urease enzyme (25 µL) was added in buffer solution (55 µL) containing 100 mM urea to prepare the stock solution. This mixture was then incubated with 5 µL (0.5 mM concentration) of the newly synthesized compounds for 15 min at 30 °C in 96-well plates. Anti-urease activity was resolved by knowing the production of ammonia using the indophenol method. Concisely, in each well, phenol reagent (45 µL, 0.005% w/v sodium nitroprusside and 1% w/v phenol) was added in addition to the alkali reagent (70 µL, NaOH 0.5% w/v and 0.1% NaOCl). After 50 min, the increase in absorbance was measured at 630 nm using a micro plate reader. All reactions were carried out in triplicate to obtained 200 µL final volume. The Softmax pro software was used to obtain the results as change in absorbance per minute. All assays were carried out at a specific pH of 6.8. The following formula was used to calculate the % inhibition: 100 − (OD test well/OD control) × 100(3)
Thiourea was used as standard inhibitor of urease. The EZ-fit kinetic data base was used to determine IC50 values. In the case of colored compounds, sample blanks were also prepared. Absorbance of sample blanks was subtracted from the absorbance of samples to get the corrected absorbance of the samples. Corrected absorbance of sample was used to calculate % age inhibition.

[2] = IC50, urease, Table 5 series (4a–d)
[3] = IC50, urease, Table 6 series (4e–g)

Jack bean urease enzyme, sequence (P07374 whole entry, looked up): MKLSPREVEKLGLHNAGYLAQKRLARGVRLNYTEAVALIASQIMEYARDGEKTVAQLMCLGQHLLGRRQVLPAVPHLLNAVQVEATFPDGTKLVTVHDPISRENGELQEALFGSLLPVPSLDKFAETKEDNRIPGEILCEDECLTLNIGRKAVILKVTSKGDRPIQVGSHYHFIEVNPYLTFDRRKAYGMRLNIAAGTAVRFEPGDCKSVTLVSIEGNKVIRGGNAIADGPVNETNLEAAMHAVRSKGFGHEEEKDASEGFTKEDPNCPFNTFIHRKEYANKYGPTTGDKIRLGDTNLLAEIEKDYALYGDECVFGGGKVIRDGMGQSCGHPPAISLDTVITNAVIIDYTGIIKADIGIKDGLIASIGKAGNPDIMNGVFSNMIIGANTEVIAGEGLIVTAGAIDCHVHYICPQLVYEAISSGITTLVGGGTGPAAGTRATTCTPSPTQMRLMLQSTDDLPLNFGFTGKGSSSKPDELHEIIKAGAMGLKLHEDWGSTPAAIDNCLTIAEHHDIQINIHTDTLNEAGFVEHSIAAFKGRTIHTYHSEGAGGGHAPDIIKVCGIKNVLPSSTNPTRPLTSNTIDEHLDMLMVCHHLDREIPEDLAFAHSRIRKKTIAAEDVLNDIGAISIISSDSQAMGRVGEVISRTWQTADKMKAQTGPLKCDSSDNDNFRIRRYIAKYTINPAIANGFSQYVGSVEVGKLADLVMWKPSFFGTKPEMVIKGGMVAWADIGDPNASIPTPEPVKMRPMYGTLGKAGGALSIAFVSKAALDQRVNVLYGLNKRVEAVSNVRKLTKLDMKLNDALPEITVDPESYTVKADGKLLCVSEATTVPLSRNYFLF

Row | Structure (SMILES) | melting point | IC50 [1, 2] | Percent urease inhibition ([1]; urease inhibition at 50 µg/mL) | Percent urease inhibition ([1]; urease inhibition at 250 µg/mL) | IC50 [1, 3] | Percent urease inhibition ([1]; urease inhibition at 15 µg/mL) | Percent urease inhibition ([1]; urease inhibition at 40 µg/mL) | Percent urease inhibition ([1]; urease inhibition at 80 µg/mL) | IC50 ([1]; urease, Table 5 series (4a–d)) | IC50 ([1]; urease, Table 6 series (4e–g))
1 | CC(=O)NS(=O)(=O)c1ccc(-c2ccccc2)s1 [Compound 4a] | 158 to 160 °C | ~136 µM and 136 µM | 67.56 ± 0.007% | 89 ± 0.01% |  |  |  |  |  | 
2 | CC(=O)NS(=O)(=O)c1ccc(-c2cc(C(F)(F)F)cc(C(F)(F)F)c2)s1 [Compound 4b, N-((5-(3,5-Bis(trifluoromethyl)phenyl)thiophen-2-yl)sulfonyl)acetamide] | 168 °C | ~197 µM and 197 µM | 29.98 ± 0.034% | 56 ± 0.006% |  |  |  |  |  | 
3 | CC(=O)NS(=O)(=O)c1ccc(-c2ccc(Cl)c(Cl)c2)s1 [Compound 4c] | 148 to 150 °C | ~121 µM and 121 µM | 54.4 ± 0.002% | 78 ± 0.003% |  |  |  |  |  | 
4 | CC(=O)NS(=O)(=O)c1ccc(-c2ccc(C)cc2)s1 [Compound 4d] | 161 to 163 °C | 738 µM | 13.34 ± 0.007% | 54 ± 0.004% |  |  |  |  |  | 
5 | CC(=O)NS(=O)(=O)c1ccc(-c2cc(C)cc(C)c2)s1 [Compound 4e] | 148 to 149 °C |  |  |  | 57.9 µM | 44.59 ± 0.14% | 91.21 ± 0.81% | 92.88 ± 0.14% |  | 
6 | CC(=O)NS(=O)(=O)c1ccc(-c2ccc(C)s2)s1 [Compound 4f] | 167 to 168.4 °C |  |  |  | ~56.7 µM and 56.7 µM | 42.44 ± 0.11% | 92.12 ± 0.21% | 94.66 ± 0.11% |  | 
7 | CC(=O)NS(=O)(=O)c1ccc(-c2ccc(Cl)cc2)s1 [Compound 4g] | 167 to 170 °C |  |  |  | 73.8 µM | 46.23 ± 0.11% | 90.97 ± 0.18% | 68 ± 0.02% |  | 
8 | NC(N)=S [Standard, Thiourea, reference compound] |  |  | 60 ± 0.032% | 95 ± 0.09% |  | 47.1 ± 0.31% | 65 ± 0.01% |  | 43 ± 0.38 µg/mL | 23.3 µg/mL
